{
  "source": "paper PMC3794927",
  "about": "“A Novel Antidiabetic Drug, Fasiglifam/TAK-875, Acts as an Ago-Allosteric Modulator of FFAR1” (PLoS ONE, 2013)",
  "key": {"hFFAR1 [1]": {"biological_target": "T1, hFFAR1 (Homo sapiens, UniProt O14842)", "T1 construct": "expressed in transfected cells", "assay": "Ca2+ mobilization assay (FLIPR) in CHO cells stably expressing hFFAR1", "format": "cell-based", "conditions": "for agonistic activity, Ca2+ influx: hFFAR1/CHO cells (clone #104)", "protocol": "Cells were selected by culturing in nucleotide-free alpha-minimum essential medium (α-MEM; Invitrogen) supplemented with 10% dialyzed and heat-inactivated fetal bovine serum (FBS; Invitrogen), 100 IU/mL penicillin, and 100 µg/mL streptomycin (Invitrogen). […] The murine pancreatic β cell line MIN6 cells were kindly provided by Dr. Miyazaki. […] Cells were cultured in a humidified atmosphere containing 5% CO2/95% air at 37°C.\n(§1) For stable CHO cell lines, cells were seeded in black-walled clear-bottomed 96-well cell culture plates (Costar) and incubated overnight in 5% CO2 at 37°C. Otherwise, HEK293T cells were transiently transfected with expression plasmids using Trans-IT (Mirus) or Lipofectamine 2000, followed by plating in poly-D-lysine-coated black clear 96-well plates (BD Falcon) and incubated for 2 days. These cells were then incubated at 37°C for 1 h in HEPES-buffered Hank’s balanced salt solution (pH 7.4) containing 2.5 mM probenecid, 1% FBS, and 4 µM fluo-3 AM (Dojindo). Following this, the cells were washed four times with the solution without fluo-3 AM. Intracellular Ca^2+ concentrations were measured before and after adding samples using FLIPR (Molecular Devices). Assays were performed in the absence of bovine serum albumin (BSA)."}, "[2]": {"tested_on": "FFAR1-knockout mouse islets", "assay": "Insulin secretion in FFAR1-knockout mouse islets", "format": "cell-based", "conditions": "16 mM glucose"}, "N-STZ-1.5 rats": {"tested_on": "N-STZ-1.5 rats", "assay": "Oral glucose tolerance test in diabetic N-STZ-1.5 rats", "format": "in vivo, rat", "protocol": "Blood samples were collected from the tail vein before drug administration (pre), before glucose load (time 0), and 10, 30, 60, and 120 min after the glucose load. Plasma glucose and FFA levels were measured using Autoanalyzer 7080 (Hitachi, Japan), and insulin levels were measured using the Rat Insulin ELISA Kit (Morinaga, Japan). All procedures were conducted according to the Experimental Animal Care and Use Committee of Takeda Pharmaceutical Company Limited."}, "MIN6 cells [3]": {"tested_on": "MIN6 cells", "assay": "Insulin secretion assay in MIN6 cells", "format": "cell-based, mouse", "conditions": "16 mM glucose", "protocol": "MIN6 cells were seeded at a density of 6 × 10^4 cells/well in 96-well plates (BD Falcon), and cells were cultured in the growth medium described above for 2 days before experiments. After discarding the medium, cells were preincubated for 2 h at 37°C with 200 µL of Krebs-Ringer bicarbonate–HEPES (KRBH) buffer (116 mmol/L NaCl, 4.7 mmol/L KCl, 1.17 mmol/L KH2PO4, 1.17 mmol/L MgSO4, 25 mmol/L NaHCO3, 2.52 mmol/L CaCl2, and 24 mmol/L HEPES) containing 0.2% BSA and 1 mmol/L glucose. After discarding the preincubation buffer, KRBH containing 0.2% BSA, 16 mmol/L glucose, and stimulators as shown was added and the plate was incubated for 2 h at 37°C. After incubation, supernatants from each well were collected and secreted insulin concentrations were measured using alphaLISA (PerkinElmer) according to the manufacturer’s instruction."}, "[4]": {"tested_on": "FFAR1 H137A and L186A mutants", "assay": "Ca2+ influx assay, FFAR1 point mutants in transfected HEK293T cells", "format": "cell-based", "conditions": "for change of EC50 in mutants versus wild-type: range over fasiglifam and GW9508 and both mutants", "protocol": "(§2) FLAG-tagged FFAR1 was constructed using a two-step procedure. Initially, untagged FFAR1-pcDNA3.1 was amplified using the forward primer ([…]) and the reverse primer ([…]) to insert a FLAG epitope at the N terminus of the receptor. Following this, the polymerase chain reaction (PCR) product was purified and ligated into a pcDNA3.1 vector. Mutations were made using the QuikChange Site-Directed Mutagenesis Kit (Stratagene) and verified by sequencing.\nas §1, with “(BSA). EC50, 95% confidence interval and Emax values for each curve were calculated by data analysis using 4-parameter logistic equation in Prism 5 software (GraphPad Software).” for “(BSA).”"}, "[5]": {"tested_on": "FFAR1 R183A and R258A mutants", "assay": "Ca2+ influx assay, FFAR1 point mutants in transfected HEK293T cells", "format": "cell-based", "protocol": "as §2\nas §1, with “(BSA). EC50, 95% confidence interval and Emax values for each curve were calculated by data analysis using 4-parameter logistic equation in Prism 5 software (GraphPad Software).” for “(BSA).”"}, "MIN6 cells [6]": {"tested_on": "MIN6 cells", "conditions": "mouse, 72 h, 1 mM", "experimental": "(§3) Caspase 3/7 activity in MIN6 cells was measured according to a previously described method (8). In brief, MIN6 cells were seeded at a density of 2 × 10^4 cells/well in a 96-well black clear plate (CORNING) and cultured overnight. After discarding the medium, 1% BSA, palmitic acid–BSA conjugate (0.25, 0.5, and 1 mM) or γ-LA–BSA conjugate (0.25, 0.5, and 1 mM) in combination with 0.1% DMSO or fasiglifam (0.1, 1, and 10 µM) were added to the plates and cultured for 72 h. After incubation, caspase 3/7 activity was measured using the Apo-one Homogeneous Caspase 3/7 assay (Promega) according to the manufacturers’ instructions. Fluorescent intensity was measured at excitation and emission wavelengths of 485 nm and 535 nm, respectively (Wallac 1420 ARVO SX Multilabel Counter; PerkinElmer)."}, "[7]": {"tested_on": "FFAR1 Y91A and N244A mutants", "assay": "Ca2+ influx assay, FFAR1 point mutants in transfected HEK293T cells", "format": "cell-based", "protocol": "as §2\nas §1, with “(BSA). EC50, 95% confidence interval and Emax values for each curve were calculated by data analysis using 4-parameter logistic equation in Prism 5 software (GraphPad Software).” for “(BSA).”"}, "hFFAR1 [8]": {"biological_target": "T1, hFFAR1", "assay": "Ca2+ influx in HEK293T cells transiently transfected with varying amounts of hFFAR1 plasmid", "format": "cell-based", "conditions": "100 ng to 1 ng hFFAR1 plasmid, compared with γ-LA", "protocol": "as §1, with “(BSA). EC50, 95% confidence interval and Emax values for each curve were calculated by data analysis using 4-parameter logistic equation in Prism 5 software (GraphPad Software).” for “(BSA).”\nSupplementary file pone.0076280.s002.tif: Figure S2 Relative efficacy of fasiglifam is affected by FFAR1/GPR40 expression levels in transient HEK293T cells. Relative Ca^2+ influx activities of fasiglifam and γ-linolenic acid (γ-LA) were measured in HEK293T cells transiently transfected with 100 ng (A), 30 ng (B), 10 ng (C), 3 ng (D), and 1 ng (E) of hFFAR1 expression plasmids. Error bars indicate s.e.m. […]"}, "wild-type mouse islets": {"tested_on": "wild-type mouse islets", "assay": "Insulin secretion in wild-type mouse islets", "format": "cell-based", "conditions": "16 mM glucose"}, "mFFAR1": {"biological_target": "T2, mFFAR1 (Mus musculus, UniProt Q76JU9)", "T2 construct": "expressed in transfected cells", "T2 sequence (Q76JU9 whole entry)": "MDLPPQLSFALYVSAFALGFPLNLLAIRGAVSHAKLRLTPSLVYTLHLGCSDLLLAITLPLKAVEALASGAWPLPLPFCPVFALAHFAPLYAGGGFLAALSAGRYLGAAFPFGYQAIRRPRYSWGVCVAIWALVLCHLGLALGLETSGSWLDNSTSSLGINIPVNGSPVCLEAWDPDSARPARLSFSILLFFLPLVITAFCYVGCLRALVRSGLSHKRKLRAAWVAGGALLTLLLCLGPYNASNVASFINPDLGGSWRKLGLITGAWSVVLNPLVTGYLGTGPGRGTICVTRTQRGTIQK", "assay": "Ca2+ mobilization assay (FLIPR) in CHO cells stably expressing mFFAR1", "format": "cell-based", "protocol": "To establish CHO cells (dhfr−) stably expressing hFFAR1 or mFFAR1, CHO/dhfr− (ATCC catalog # CRL-9096) cells were transfected with hFFAR1-pAKKO-111H or mFFAR1-pAKKO-111H plasmid using Lipofectamine 2000 (Invitrogen). Cells were selected by culturing in nucleotide-free alpha-minimum essential medium (α-MEM; Invitrogen) supplemented with 10% dialyzed and heat-inactivated fetal bovine serum (FBS; Invitrogen), 100 IU/mL penicillin, and 100 µg/mL streptomycin (Invitrogen). HEK293T (ATCC catalog # CRL-11268) cells were cultured in Dulbecco’s modified Eagle’s medium (DMEM, Invitrogen) supplemented with 10% heat-inactivated FBS, 100 IU/mL penicillin, and 100 µg/mL streptomycin. The murine pancreatic β cell line MIN6 cells were kindly provided by Dr. Miyazaki. MIN6 cells were grown in DMEM containing 10% heat-inactivated FBS, 100 IU/mL penicillin, 100 µg/mL streptomycin, and 55 µmol/L 2-mercaptoethanol (Invitrogen). Cells were cultured in a humidified atmosphere containing 5% CO2/95% air at 37°C.\nFor stable CHO cell lines, cells were seeded in black-walled clear-bottomed 96-well cell culture plates (Costar) and incubated overnight in 5% CO2 at 37°C. […] Intracellular Ca^2+ concentrations were measured before and after adding samples using FLIPR (Molecular Devices). […]"}, "rat insulinoma cells": {"tested_on": "rat insulinoma cells", "set-up": "method as in PMID 21752941", "conditions": "prolonged exposure to fasiglifam alone; cited from earlier work"}, "MIN6 cells [9]": {"tested_on": "MIN6 cells", "assay": "Caspase 3/7 activity in MIN6 cells (lipotoxicity)", "conditions": "72-h exposure, palmitic acid 0.25–1 mM", "experimental": "as §3"}},
  "note": "Read-outs that look alike come from different tables or passages of the source.",
  "data": [
    {"smiles": "CCCCCCCCCCCCCC(=O)O", "note": "[myristic acid]", "values": [
      {"measurement": "agonistic activity, Ca2+ influx", "setting": "hFFAR1 [1]", "result": "partial activities"}
    ]},
    {"smiles": "CCC1=C(C)CN(C(=O)NCCc2ccc(S(=O)(=O)NC(=O)N[C@H]3CC[C@H](C)CC3)cc2)C1=O", "note": "[glimepiride]", "values": [
      {"measurement": "insulinotropic effect in FFAR1-knockout islets", "setting": "[2]", "result": "not affected"}
    ]},
    {"smiles": "Cc1cnc(C(=O)O)c[n+]1[O-]", "note": "[acipimox]", "values": [
      {"measurement": "plasma FFA levels", "setting": "N-STZ-1.5 rats; acipimox 30 mg/kg oral, N-STZ-1.5 rats, OGTT", "result": "rapid decrease"},
      {"measurement": "glucose tolerance", "setting": "N-STZ-1.5 rats; acipimox alone 30 mg/kg, OGTT, N-STZ-1.5 rats", "result": "improved glucose tolerance"},
      {"measurement": "plasma FFA level after reduction with acipimox", "setting": "N-STZ-1.5 rats; diabetic rats, acipimox", "result": "approximately 0.2 mEq/L"}
    ]},
    {"smiles": "CCCCC/C=C\\C/C=C\\C/C=C\\CCCCC(=O)O", "note": "[γ-LA, γ-linolenic acid]", "values": [
      {"measurement": "insulin secretion, compound alone", "setting": "MIN6 cells [3]; 0.2% BSA", "result": "could not significantly potentiate insulin secretion"},
      {"measurement": "activity in mutants versus wild-type", "setting": "[4]", "result": "remained almost unchanged"},
      {"measurement": "Ca2+ influx response of mutants", "setting": "[5]", "result": "relatively less affected"},
      {"measurement": "caspase 3/7 activity", "setting": "MIN6 cells [6]", "result": "significant enhancements of caspase 3/7 activity"},
      {"measurement": "agonistic activity, Ca2+ influx", "setting": "hFFAR1 [1]", "result": "full agonistic activity"},
      {"measurement": "EC50", "setting": "hFFAR1 [1]; hFFAR1/CHO clone #2, without fasiglifam, read-out: EC50 of γ-LA response (Ca2+ influx)", "result": 5.39, "unit": "µM"}
    ]},
    {"smiles": "O=C(O)CCc1ccc(NCc2cccc(Oc3ccccc3)c2)cc1", "note": "[GW9508]", "values": [
      {"measurement": "change of EC50 in mutants versus wild-type", "setting": "[4]", "result": "7.7- to 130 fold"},
      {"measurement": "Ca2+ influx response of mutants", "setting": "[5]", "result": "almost completely unresponsive"},
      {"measurement": "effect of mutations on potency", "setting": "[7]", "result": "more drastic"}
    ]},
    {"smiles": "Cc1cc(OCCCS(C)(=O)=O)cc(C)c1-c1cccc(COc2ccc3c(c2)OC[C@H]3CC(=O)O)c1.Cc1cc(OCCCS(C)(=O)=O)cc(C)c1-c1cccc(COc2ccc3c(c2)OC[C@H]3CC(=O)O)c1.O", "note": "[fasiglifam, [(3S)-6-({2′,6′-dimethyl-4′-[3-(methylsulfonyl)propoxy]biphenyl-3-yl}methoxy)-2,3-dihydro-1-benzofuran-3-yl] acetic acid hemihydrate]", "values": [
      {"measurement": "insulinotropic effect in FFAR1-knockout islets", "setting": "[2]", "result": "completely abolished"},
      {"measurement": "maximal response as amount of transfection plasmid decreased", "setting": "hFFAR1 [8]", "result": "dramatically decreased"},
      {"measurement": "increase in the maximal response of fasiglifam (insulin secretion) by γ-LA", "setting": "MIN6 cells [3]; γ-LA 100 µM", "result": "1.5–2 fold"},
      {"measurement": "change of EC50 in mutants versus wild-type", "setting": "[4]", "result": "7.7- to 130 fold"},
      {"measurement": "Ca2+ influx response of mutants", "setting": "[5]", "result": "almost unresponsive"},
      {"measurement": "effect of mutations on potency", "setting": "[7]", "result": "more drastic"},
      {"measurement": "effect of γ-LA on insulinotropic activity of fasiglifam", "setting": "wild-type mouse islets", "result": "dramatic improvement"},
      {"measurement": "insulinotropic action in acipimox-treated rats", "setting": "N-STZ-1.5 rats; fasiglifam 10 mg/kg + acipimox 30 mg/kg, OGTT", "result": "significantly suppressed"},
      {"measurement": "plasma insulin (insulinotropic effect) versus vehicle", "setting": "N-STZ-1.5 rats; fasiglifam alone 10 mg/kg oral, at 0, 10, and 30 min of OGTT", "result": "significant insulinotropic effects"},
      {"measurement": "Emax, Ca2+ mobilization", "setting": "mFFAR1", "result": "lower Emax than γ-LA"},
      {"measurement": "agonistic activity, Ca2+ influx", "setting": "hFFAR1 [1]", "result": "higher potency than FFAs"},
      {"measurement": "effect of simultaneous γ-LA on fasiglifam Ca2+ activity", "setting": "hFFAR1 [1]; hFFAR1/CHO clone #2, increasing doses of γ-LA", "result": "remarkable potentiation"},
      {"measurement": "effect on apoptosis", "setting": "rat insulinoma cells", "result": "no effect on apoptosis"}
    ]},
    {"smiles": "CCCCCCCCCCCCCCCC(=O)O", "note": "[palmitic acid]", "values": [
      {"measurement": "caspase 3/7 activity", "setting": "MIN6 cells [9]", "result": "increased caspase 3/7 activity in a dose-dependent manner"},
      {"measurement": "agonistic activity, Ca2+ influx", "setting": "hFFAR1 [1]", "result": "partial activities"}
    ]}
  ]
}
